From paper PMC7664879, “Discovery of 12O—A Novel Oral Multi-Kinase Inhibitor for the Treatment of Solid Tumor” (Molecules, 2020)
pIC50: −log10 of the molar value.

Assays:
A549 = assay: CCK-8 cell growth inhibition, A549; format: cell-based, human; details: Homo sapiens, A549; lung cancer; CCK-8 assay, 72-h incubation
Experimental: In vitro anticancer screening of all newly synthesized compounds towards human solid tumor cells, cervical (SiHa) and ovarian (SKOV3) cancer cell lines, was carried out by standard CCK-8 assay with cisplatin as the positive control, as cisplatin is one of the most used chemotherapy drugs. […] The compound was further evaluated in a dose response study against a panel of solid tumor cells, including cervical cancer cell lines (SiHa and HeLa), ovarian cancer cell lines (SKOV3 and OVCAR-5), breast cancer cell lines (4T1 and MCF-7), lung cancer cell lines (A549 and H460) to test cytotoxic activity. The IC50 values were summarized in Table 2, including the cytotoxic activity of the cisplatin used as reference compound.
The viability of cells as determined using the CCK8 assay method. Cells were seeded (2000–3000 cells per well) in 96-well plates. After incubation for 24 h in serum-containing media, the cells were treated with drugs at different concentrations diluted with culture medium for 72 h at 37 °C with a 5% CO2 atmosphere. […] Finally, absorbance values of test wells (AS), control wells (AC) and blank wells (Ab) at 450 nm were read using the Microplate Reader (Promega, WI). Inhibition ratios were calculated as follows: [(AC − AS)/ (AC−Ab)] × 100%. IC50 values were calculated using GraphPad software.

CDK7/cyclinH/MAT1(h) = target: T1, CDK7/cyclinH/MAT1(h) (Homo sapiens, UniProt P50613); assay: Kinase inhibition assay (Eurofins KinaseProfiler); format: biochemical; details: ATP at Km
T1 construct: purchased Eurofins (KinaseProfiler service)
Experimental: (§1) Kinase inhibition profiles were determined using KinaseProfiler services provided by Eurofins, and ATP concentrations used are the Km of corresponding kinases.
CDK7/cyclinH/MAT1 (h) was incubated with 8 mM MOPS pH 7.0, 0.2 mM EDTA, 500 uM peptide, 10 mM MgAcetate and [gamma-33P]-ATP (specific activity and concentration as required).
(§2) All the reactions above were initiated by the addition of the Mg/ATP mix. After incubation for 40 min at room temperature, the reaction was stopped by the addition of phosphoric acid to a concentration of 0.5%. An amount of 10 µL of the reaction was then spotted onto a P30 filtermat and washed four times for 4 min in 0.425% phosphoric acid and once in methanol prior to drying and scintillation counting.

Abl(h) = target: T2, Abl(h) (Homo sapiens, UniProt P00519); assay: Kinase inhibition assay (Eurofins KinaseProfiler); format: biochemical; details: ATP at Km
T2 construct: purchased Eurofins (KinaseProfiler service)
Experimental: as §1
(§3) Flt1 (h) was incubated with 8 mM MOPS pH 7.0, 0.2 mM EDTA, 250 uM KKKSPGEYVNIEFG, 10 mM MgAcetate and [g- 33P]-ATP; Flt3 (h) [Abl (h)] was incubated with 8 mM MOPS pH 7.0, 0.2 mM EDTA, 50 uM EAIYAAPFAKKK, 10 mM MgAcetate and [gamma-33P]- ATP; Flt4 (h) was incubated with 8 mM MOPS pH 7.0, 0.2 mM EDTA, 500 uM GGEEEEYFELVKKKK, 10 mM MgAcetate and [gamma-33P]-ATP.
as §2

FLT1 (VEGFR1) = target: T3, FLT1 (VEGFR1) (Homo sapiens, UniProt P17948); assay: Kinase inhibition assay (Eurofins KinaseProfiler); format: biochemical; details: ATP at Km
T3 construct: purchased Eurofins (KinaseProfiler service)
Experimental: as §1, §3, §2

FLT3(h) = target: T4, FLT3(h) (Homo sapiens, UniProt P36888); assay: Kinase inhibition assay (Eurofins KinaseProfiler); format: biochemical; details: ATP at Km
T4 construct: purchased Eurofins (KinaseProfiler service)
Experimental: as §1, §3, §2

FLT4 (VEGFR3) = target: T5, FLT4 (VEGFR3) (Homo sapiens, UniProt P35916); assay: Kinase inhibition assay (Eurofins KinaseProfiler); format: biochemical; details: ATP at Km
T5 construct: purchased Eurofins (KinaseProfiler service)
Experimental: as §1, §3, §2

FGFR1(h) = target: T6, FGFR1(h) (Homo sapiens, UniProt P11362); assay: Kinase inhibition assay (Eurofins KinaseProfiler); format: biochemical; details: ATP at Km
T6 construct: purchased Eurofins (KinaseProfiler service)
Experimental: as §1
FGFR1 (h) was incubated with 8 mM MOPS pH 7.0, 0.2 mM EDTA, 250 uM KKKSPGEYVNIEFG, 10 mM MgAcetate and [gamma-33P]-ATP.
as §2

T5 sequence (P35916 25-1363): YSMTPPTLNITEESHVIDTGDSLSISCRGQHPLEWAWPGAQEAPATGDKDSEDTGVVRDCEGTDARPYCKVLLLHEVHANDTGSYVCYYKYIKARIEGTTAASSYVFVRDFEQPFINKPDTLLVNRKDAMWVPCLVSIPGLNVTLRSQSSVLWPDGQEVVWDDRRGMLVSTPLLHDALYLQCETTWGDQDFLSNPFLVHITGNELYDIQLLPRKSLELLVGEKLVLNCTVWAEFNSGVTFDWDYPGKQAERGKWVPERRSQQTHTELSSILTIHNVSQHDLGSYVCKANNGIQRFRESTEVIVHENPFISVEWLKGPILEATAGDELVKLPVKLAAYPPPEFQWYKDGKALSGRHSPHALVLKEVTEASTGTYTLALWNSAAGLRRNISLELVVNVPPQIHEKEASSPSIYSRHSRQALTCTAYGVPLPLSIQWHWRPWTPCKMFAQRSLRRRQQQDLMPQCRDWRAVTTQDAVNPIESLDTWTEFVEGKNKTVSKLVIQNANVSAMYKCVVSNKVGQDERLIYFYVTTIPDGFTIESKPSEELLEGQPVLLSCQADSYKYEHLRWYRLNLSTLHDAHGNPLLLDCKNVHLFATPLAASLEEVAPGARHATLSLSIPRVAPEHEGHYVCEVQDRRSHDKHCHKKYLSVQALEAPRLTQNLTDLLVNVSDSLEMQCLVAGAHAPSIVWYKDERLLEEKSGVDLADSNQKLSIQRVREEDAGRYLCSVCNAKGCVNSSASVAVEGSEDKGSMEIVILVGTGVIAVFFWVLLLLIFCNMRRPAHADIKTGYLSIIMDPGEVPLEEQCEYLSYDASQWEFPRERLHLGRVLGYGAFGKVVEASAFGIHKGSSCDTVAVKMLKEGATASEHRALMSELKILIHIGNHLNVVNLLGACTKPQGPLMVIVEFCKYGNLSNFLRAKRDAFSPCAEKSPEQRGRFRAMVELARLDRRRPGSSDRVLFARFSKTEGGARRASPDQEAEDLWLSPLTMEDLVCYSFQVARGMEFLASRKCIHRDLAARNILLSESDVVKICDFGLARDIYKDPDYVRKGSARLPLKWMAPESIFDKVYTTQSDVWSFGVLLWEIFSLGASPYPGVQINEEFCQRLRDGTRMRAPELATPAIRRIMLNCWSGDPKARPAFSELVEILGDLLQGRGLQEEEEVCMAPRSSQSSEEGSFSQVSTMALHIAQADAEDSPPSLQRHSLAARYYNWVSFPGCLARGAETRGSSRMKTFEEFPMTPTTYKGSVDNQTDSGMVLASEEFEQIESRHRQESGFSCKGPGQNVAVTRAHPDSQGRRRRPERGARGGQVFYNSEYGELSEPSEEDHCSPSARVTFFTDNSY
T4 sequence (P36888 27-993): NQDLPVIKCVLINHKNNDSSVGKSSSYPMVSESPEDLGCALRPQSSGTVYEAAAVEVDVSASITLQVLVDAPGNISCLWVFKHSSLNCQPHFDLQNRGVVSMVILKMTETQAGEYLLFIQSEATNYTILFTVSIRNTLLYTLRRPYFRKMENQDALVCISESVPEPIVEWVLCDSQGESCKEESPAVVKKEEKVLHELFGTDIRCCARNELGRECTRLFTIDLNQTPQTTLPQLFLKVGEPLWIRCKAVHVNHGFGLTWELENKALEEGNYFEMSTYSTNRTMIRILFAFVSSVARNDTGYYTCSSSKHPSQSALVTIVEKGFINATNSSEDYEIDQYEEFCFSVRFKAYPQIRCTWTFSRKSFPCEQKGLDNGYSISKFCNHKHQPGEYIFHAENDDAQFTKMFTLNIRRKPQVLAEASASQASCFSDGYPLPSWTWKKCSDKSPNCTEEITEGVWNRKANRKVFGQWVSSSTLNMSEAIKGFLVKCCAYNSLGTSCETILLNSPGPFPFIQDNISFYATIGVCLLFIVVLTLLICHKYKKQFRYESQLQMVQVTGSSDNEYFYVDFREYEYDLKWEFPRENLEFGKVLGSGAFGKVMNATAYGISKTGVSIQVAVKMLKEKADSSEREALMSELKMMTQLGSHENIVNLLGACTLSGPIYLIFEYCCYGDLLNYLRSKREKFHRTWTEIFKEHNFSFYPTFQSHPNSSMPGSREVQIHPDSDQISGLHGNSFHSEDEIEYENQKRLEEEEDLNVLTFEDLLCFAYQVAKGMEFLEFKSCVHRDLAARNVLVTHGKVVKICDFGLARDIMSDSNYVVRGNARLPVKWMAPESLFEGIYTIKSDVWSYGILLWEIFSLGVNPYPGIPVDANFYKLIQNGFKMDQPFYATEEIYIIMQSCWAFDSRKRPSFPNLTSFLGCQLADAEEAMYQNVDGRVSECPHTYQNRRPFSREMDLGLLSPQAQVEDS
T1 sequence (P50613 whole entry): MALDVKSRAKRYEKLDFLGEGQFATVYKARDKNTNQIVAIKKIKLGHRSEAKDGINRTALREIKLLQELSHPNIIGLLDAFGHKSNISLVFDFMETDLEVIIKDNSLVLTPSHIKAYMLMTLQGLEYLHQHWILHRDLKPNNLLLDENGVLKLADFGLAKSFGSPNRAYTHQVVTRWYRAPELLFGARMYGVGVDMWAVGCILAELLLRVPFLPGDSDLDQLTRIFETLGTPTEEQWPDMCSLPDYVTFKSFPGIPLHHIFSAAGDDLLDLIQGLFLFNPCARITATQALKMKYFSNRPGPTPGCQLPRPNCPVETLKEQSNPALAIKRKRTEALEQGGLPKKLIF
T1 sequence (P51946 whole entry partner): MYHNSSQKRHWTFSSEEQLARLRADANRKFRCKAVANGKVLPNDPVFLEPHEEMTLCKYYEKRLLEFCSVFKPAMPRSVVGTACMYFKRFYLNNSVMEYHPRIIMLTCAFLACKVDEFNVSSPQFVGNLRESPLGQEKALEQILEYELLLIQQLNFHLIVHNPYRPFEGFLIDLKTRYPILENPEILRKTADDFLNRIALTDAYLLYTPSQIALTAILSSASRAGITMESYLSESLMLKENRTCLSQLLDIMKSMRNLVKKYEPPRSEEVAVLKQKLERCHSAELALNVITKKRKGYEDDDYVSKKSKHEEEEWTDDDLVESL
T1 sequence (P51948 whole entry partner): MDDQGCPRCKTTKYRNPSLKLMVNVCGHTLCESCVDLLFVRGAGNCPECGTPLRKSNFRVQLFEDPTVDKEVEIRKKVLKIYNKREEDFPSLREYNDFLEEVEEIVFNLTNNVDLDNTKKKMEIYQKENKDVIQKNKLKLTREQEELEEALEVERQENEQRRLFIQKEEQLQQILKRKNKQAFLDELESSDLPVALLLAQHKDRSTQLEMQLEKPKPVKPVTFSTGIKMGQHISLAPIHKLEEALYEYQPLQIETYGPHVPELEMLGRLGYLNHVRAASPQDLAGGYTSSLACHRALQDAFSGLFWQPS
T3 sequence (P17948 27-1338): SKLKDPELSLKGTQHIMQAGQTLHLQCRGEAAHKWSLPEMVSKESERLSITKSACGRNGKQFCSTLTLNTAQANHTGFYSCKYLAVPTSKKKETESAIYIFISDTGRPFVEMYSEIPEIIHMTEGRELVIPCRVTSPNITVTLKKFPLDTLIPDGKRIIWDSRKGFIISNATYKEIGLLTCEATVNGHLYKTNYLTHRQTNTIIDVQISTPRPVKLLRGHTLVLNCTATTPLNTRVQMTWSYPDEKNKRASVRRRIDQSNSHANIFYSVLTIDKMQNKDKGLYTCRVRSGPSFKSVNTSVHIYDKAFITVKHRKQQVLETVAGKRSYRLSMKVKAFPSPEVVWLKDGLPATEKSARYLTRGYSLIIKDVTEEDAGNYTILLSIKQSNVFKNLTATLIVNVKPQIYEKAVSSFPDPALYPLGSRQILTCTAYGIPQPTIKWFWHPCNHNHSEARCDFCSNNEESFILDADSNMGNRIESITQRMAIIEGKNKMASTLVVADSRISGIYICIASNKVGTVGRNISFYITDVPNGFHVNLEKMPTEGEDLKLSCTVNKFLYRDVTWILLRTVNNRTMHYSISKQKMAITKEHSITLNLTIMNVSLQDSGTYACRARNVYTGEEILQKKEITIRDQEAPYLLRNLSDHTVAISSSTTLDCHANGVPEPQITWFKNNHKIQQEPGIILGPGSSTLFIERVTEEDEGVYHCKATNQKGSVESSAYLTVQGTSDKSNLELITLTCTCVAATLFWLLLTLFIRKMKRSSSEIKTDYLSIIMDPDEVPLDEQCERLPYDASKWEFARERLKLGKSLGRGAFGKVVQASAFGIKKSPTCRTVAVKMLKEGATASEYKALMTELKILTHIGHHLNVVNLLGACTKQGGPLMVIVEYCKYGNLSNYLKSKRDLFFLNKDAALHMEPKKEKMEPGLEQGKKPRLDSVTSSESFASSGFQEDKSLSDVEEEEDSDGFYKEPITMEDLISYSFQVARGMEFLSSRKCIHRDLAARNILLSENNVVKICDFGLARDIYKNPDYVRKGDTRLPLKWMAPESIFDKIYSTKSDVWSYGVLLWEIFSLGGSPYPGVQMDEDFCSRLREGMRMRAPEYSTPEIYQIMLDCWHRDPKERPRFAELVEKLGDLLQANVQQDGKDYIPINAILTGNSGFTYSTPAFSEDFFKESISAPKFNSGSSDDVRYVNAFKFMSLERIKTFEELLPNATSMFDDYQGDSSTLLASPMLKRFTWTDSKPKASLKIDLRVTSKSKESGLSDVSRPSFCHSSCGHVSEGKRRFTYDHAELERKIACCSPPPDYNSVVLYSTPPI

CC(C)n1nnc2ccc(-c3nc(Nc4ccc(CNC(=O)C5(C(=O)Nc6ccccc6)CC5)cc4)ncc3F)cc21 [12O]
pIC50 (A549): 7.46 | inhibition at 1 µM (CDK7/cyclinH/MAT1(h)): 53% | inhibition at 1 µM (Abl(h)): 31% | inhibition at 1 µM (FLT1 (VEGFR1)): 50% | inhibition at 1 µM (FLT3(h); 1 µM): 98% | pIC50 (FLT3(h)): 7.62 | inhibition at 1 µM (FLT4 (VEGFR3); 1 µM): 95% | pIC50 (FLT4 (VEGFR3)): 7.17 | inhibition at 1 µM (FGFR1(h)): -23%
